The record followed here is US12697376B2, “Cationic lipid compounds” (Guangzhou Anobri Pharmaceutical Co. Ltd., priority 2021, dated 2026).

Data set [1] can be described thus: Determination of the pKa of the cationic lipid in lipid nanoparticles by TNS fluorescence. The settings on record: probe 2-(p-toluidine)-6-naphthalenesulfonic acid (TNS), 1 uM final, cationic lipid in LNP (cationic lipid/DSPC/cholesterol/PEG lipid 50/10/38/2 mol %), pH of half-maximal fluorescence. It is filed as physicochemical. The procedure:
(§1) Cationic lipids, DSPC, cholesterol, and PEG-lipids were dissolved in ethanol in molar ratios of 50:10:38:2 or 48:10:40:2. Lipid nanoparticles (LNPs) were prepared in a ratio of total lipid to mRNA by weight of about 10:1 to 30:1. Briefly, mRNA was diluted to 0.15 mg/ml in 10 to 50 ml of citrate buffer (pH=4). Using a syringe pump, an ethanolic solution of lipids was mixed with an aqueous mRNA solution in a ratio of approximately 1:5 to 1:3 by volume at a total flow rate of over 10 ml/min. Ethanol was then removed and the external buffer was replaced by dialysis-class PBS. Finally, the lipid nanoparticles were filtered through a sterile filter with a pore size of 0.2 um. The particle size of the lipid nanoparticles was approximately 65-105 nm in diameter and, in some cases, approximately 75-100 nm in diameter, determined by quasi-elastic light scattering using Malvern Zetasizer Nano ZS.
The pKa of the formulated cationic lipid correlates with the effectiveness of the LNP for nucleic acid delivery. The preferred pKa range is from 5 to 7. The pKa of each cationic lipid was determined in lipid nanoparticles using an analysis based on the fluorescence of 2-(p-toluidine)-6-naphthalenesulfonic acid (TNS). Lipid nanoparticles containing cationic lipids/DSPC/cholesterol/PEG lipids (50/10/38/2 mol %) at a concentration of 0.4 mM total lipid in PBS were prepared using an ordered method as described in Example 10. TNS was prepared as a 100 μM stock solution in distilled water. The vesicles were diluted to contain 24 uM lipid in a 2 mL buffer solution containing 10 mM HEPES, 10 mM MES, 10 mM acetic acid, and 130 mM NaCl, pH 2.5-11. Aliquots of 100 μM TNS stock solution were added to bring the final concentration to 1 uM. After vortex mixing, fluorescence intensity was measured in an SLM Aminco Series 2 luminescence spectrophotometer at room temperature using excitation and emission wavelengths of 321 nm and 445 nm. Fluorescence data were analyzed using a s-shaped curve fitting and pKa was determined by measuring the pH that produced half-maximal fluorescence intensity.

For data set [2], the system named is luciferase expression in the liver. The experiment in a line: In vivo luciferase mRNA expression in liver after tail vein injection of FLuc mRNA lipid nanoparticles. The arrangement: species or system mice. The settings on record: liver 5 hours after administration, LNP 50% cationic lipid/10% DSPC/38% cholesterol/2% PEG-DMG; for Liver Luc @ 0.3 mg/kg dose: 0.3 mg mRNA/kg; for Liver Luc @ 1.0 mg/kg dose: 1.0 mg mRNA/kg. The procedure:
as §1
According to the guidelines set by the State Scientific and Technological Commission of The People's Republic of China, female C57BL/6 mice aged 6-8 weeks and CD-1 mice aged 8-10 weeks were used to perform the study. Various doses of mRNA lipid nanoparticles were administered by intravenous injection and the animals were euthanized at specific time points (e.g., 5 hours) post-administration. The liver and spleen were collected, weighed, immediately frozen in liquid nitrogen, and stored at −80° C. until being used for analysis.
For the liver, approximately 50 mg of liver tissue was cut and placed in 2 mL FastPrep tubes (MP Biomedicals, Solon OH) for analysis. ¼″ ceramic beads (MP Biomedicals) and 500 μL of room temperature Glo Lysis Buffer-GLB (Promega, Madison WI) were then added to each tube. The liver tissue was then homogenized for 15 seconds at a speed of 2×6.0 m/s using a FastPrep24 instrument (MP Biomedicals). The homogenates were incubated at room temperature for 5 minutes, then diluted with GLB in a ratio of 1:4, and finally evaluated using the SteadyGlo luciferase assay system (Promega). Specifically, 50 μL of diluted tissue homogenate was mixed with 50 μL of SteadyGlo substrate. The mixture was shaken for 10 seconds, then incubated at room temperature for 5 minutes, and subsequently quantified using a SpectraMAX_L chemiluminescent plate reader (Meigu Molecular Instrument (Shanghai) Co., Ltd.). The amount of protein was measured by using the BCA Protein Quantitation Kit (Shanghai Colorless Medical Technology Co., Ltd.). Relative luminescence units (RLU) were normalized to the total ug of the measured protein. To convert RLU into μg luciferase, a standard curve was generated using QuantiLum recombinant luciferase (Promega).
FLuc mRNA (L-6107) from Trilink Biotechnologies, which was originally isolated from fireflies (Photinus pyralis), will express luciferase protein. Fluc is commonly used in mammalian cell cultures to measure gene expression and cell viability. It emits biological light in the presence of the substrate luciferin. This capped and polyadenylated mRNA was completely replaced by 5-methylcytidine and pseudouridine.
For comparison purposes, these lipids were also used to formulate lipid nanoparticles containing FLuc mRNA (L-6107) using an ordered mixing method, as described in Example 10. Lipid nanoparticles were formulated with the following molar ratio: 50% cationic lipid/10% distearylphosphatidylcholine (DSPC)/38% cholesterol/2% PEG lipid (“PEG-DMG”, i.e., (1-(monomethoxy-polyethylene glycol)-2,3-dimyristoylglycerol, average PEG molecular weight 2000). As described in Example 10, relative activity was determined by measuring luciferase expression in the liver 5 hours after administration via tail vein injection. The activity was compared at doses of 0.3 and 1.0 mg mRNA/kg and expressed as ng luciferase/g liver measured 5 hours after administration as described in Example 10.

In data set [1], `CCCCCCCCC(C)(CCCCCC)C(=O)OCCCCCCN(CCCCO)CCCCCCOC(=O)C(C)(CCCCCC)CCCCCCCC` (stereo not drawn) [Compound 4] displayed a pKa of 6.12. Moreover, in data set [2], the “Liver Luc @ 0.3 mg/kg dose” value amounted to 1179 ± 362 ng luciferase/g liver and the “Liver Luc @ 1.0 mg/kg dose” value is recorded as 8630 ± 824 ng luciferase/g liver.
`CCCCCCCCC(CC)(CCCCCC)C(=O)OCCCCCCN(CCCCO)CCCCCCOC(=O)C(CC)(CCCCCC)CCCCCCCC` (stereo not drawn) [Compound 7] had a pKa in data set [1] of 6.08. Moreover, in data set [2], the “Liver Luc @ 0.3 mg/kg dose” value is 1218 ± 359 ng luciferase/g liver and the “Liver Luc @ 1.0 mg/kg dose” value is reported as 8914 ± 1487 ng luciferase/g liver.
`CCCCCCCCC(C)(CCCCCC)C(=O)OCCCCCCN(CCCCO)CCCCCCOC(=O)C(CC)(CCCCCC)CCCCCCCC` (stereo not drawn) [Compound 5] had a pKa in data set [1] of 5.89. In data set [2], the “Liver Luc @ 0.3 mg/kg dose” value turned out to be 1424 ± 289 ng luciferase/g liver and the “Liver Luc @ 1.0 mg/kg dose” value is recorded as 10372 ± 2096 ng luciferase/g liver.
Consider `CCCCCCCCC(CCC)(CCCCCC)C(=O)OCCCCCCN(CCCCO)CCCCCCOC(=O)C(CCC)(CCCCCC)CCCCCCCC` (stereo not drawn) [Compound 9], for which the pKa in data set [1] is 6.05. Besides, in data set [2], the “Liver Luc @ 0.3 mg/kg dose” value came to 1138 ± 265 ng luciferase/g liver and the “Liver Luc @ 1.0 mg/kg dose” value worked out at 8443 ± 1045 ng luciferase/g liver.
The molecule `CCCCCCCCC(CCCCCC)C(=O)OCCCCCCN(CCCCO)CCCCCCOC(=O)C(C)(CCCCCC)CCCCCCCC` (stereo not drawn) [Compound 1] gave a pKa in data set [1] of 6.25. Moreover, in data set [2], the “Liver Luc @ 0.3 mg/kg dose” value stood at 1424 ± 265 ng luciferase/g liver and the “Liver Luc @ 1.0 mg/kg dose” value was 10318 ± 1304 ng luciferase/g liver.
In turn, `CCCCCCCCC(CCCCCC)C(=O)OCCCCCCN(CCCCO)CCCCCCOC(=O)C(CCC)(CCCCCC)CCCCCCCC` (stereo not drawn) [Compound 3] registered a pKa in data set [1] of 6.22. Further, in data set [2], the “Liver Luc @ 0.3 mg/kg dose” value is given as 961 ± 469 ng luciferase/g liver and the “Liver Luc @ 1.0 mg/kg dose” value turned out to be 6917 ± 642 ng luciferase/g liver.
Turning to `CCCCCCCCC(CC)(CCCCCC)C(=O)OCCCCCCN(CCCCO)CCCCCCOC(=O)C(CCC)(CCCCCC)CCCCCCCC` (stereo not drawn) [Compound 8], the pKa in data set [1] was found to be 5.98. Further, in data set [2], the “Liver Luc @ 0.3 mg/kg dose” value is on record as 985 ± 625 ng luciferase/g liver and the “Liver Luc @ 1.0 mg/kg dose” value came to 7188 ± 942 ng luciferase/g liver.
In turn, `CCCCCCCCC(C)(CCCCCC)C(=O)OCCCCCCN(CCCCO)CCCCCCOC(=O)C(CCC)(CCCCCC)CCCCCCCC` (stereo not drawn) [Compound 6] returned a pKa in data set [1] of 6.13. For the same molecule, in data set [2], the “Liver Luc @ 0.3 mg/kg dose” value is given as 1628 ± 432 ng luciferase/g liver and the “Liver Luc @ 1.0 mg/kg dose” value is reported as 11753 ± 2598 ng luciferase/g liver.
Consider `CCCCCCCCC(CCCCCC)C(=O)OCCCCCCN(CCCCO)CCCCCCOC(=O)C(CC)(CCCCCC)CCCCCCCC` (stereo not drawn) [Compound 2], for which, in data set [1], the pKa came out at 5.91. For the same molecule, in data set [2], the “Liver Luc @ 0.3 mg/kg dose” value was 1469 ± 294 ng luciferase/g liver and the “Liver Luc @ 1.0 mg/kg dose” value is on record as 10671 ± 1912 ng luciferase/g liver.

In general, pKa refers to the pH at which an ionisable group is half protonated.
